Experimental data as given in ChEMBL document CHEMBL1137840, “A novel cyclic enkephalin analogue with potent opioid antagonist activity” (Bioorg Med Chem Lett, 2004).

Columns and labels:
[1] = target: Kappa-type opioid receptor (Cavia porcellus) (UniProt P41144); assay: Binding potency towards Kappa opioid receptor of guinea pig ileum; format: tissue-based
[2] = Binding affinity towards Mu opioid receptor
[3] = target: Mu-type opioid receptor (Cavia porcellus) (UniProt P97266); assay: Binding potency towards Mu opioid receptor of guinea pig ileum; format: tissue-based
[4] = Binding affinity towards Kappa opioid receptor
[5] = target: Delta-type opioid receptor (Mus musculus) (UniProt P32300); assay: Binding potency towards Delta opioid receptor of mouse vas deferens; format: tissue-based
[6] = Binding affinity towards Opioid receptor mu 1
[7] = target: Kappa-type opioid receptor (Cavia porcellus, UniProt P41144); assay: Inhibitory concentration against Kappa opioid receptor of guinea pig ileum; format: tissue-based
Sequence of Kappa-type opioid receptor (P41144 whole entry): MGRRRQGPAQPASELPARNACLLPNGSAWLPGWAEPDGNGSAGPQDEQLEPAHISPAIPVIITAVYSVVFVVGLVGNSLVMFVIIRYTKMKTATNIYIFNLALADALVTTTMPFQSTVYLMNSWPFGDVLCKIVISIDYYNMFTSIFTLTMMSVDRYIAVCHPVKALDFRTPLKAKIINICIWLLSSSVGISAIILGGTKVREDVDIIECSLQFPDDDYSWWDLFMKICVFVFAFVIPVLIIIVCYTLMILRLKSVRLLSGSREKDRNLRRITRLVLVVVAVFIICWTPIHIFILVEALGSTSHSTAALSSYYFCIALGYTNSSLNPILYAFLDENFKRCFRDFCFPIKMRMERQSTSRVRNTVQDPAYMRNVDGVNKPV

Sequence of Kappa-type opioid receptor (Cavia porcellus) (P41144 whole entry): as above
Sequence of Mu-type opioid receptor (Cavia porcellus) (P97266 whole entry): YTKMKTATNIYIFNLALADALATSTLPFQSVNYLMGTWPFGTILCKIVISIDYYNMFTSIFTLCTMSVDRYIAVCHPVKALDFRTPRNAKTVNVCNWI
Sequence of Delta-type opioid receptor (Mus musculus) (P32300 whole entry): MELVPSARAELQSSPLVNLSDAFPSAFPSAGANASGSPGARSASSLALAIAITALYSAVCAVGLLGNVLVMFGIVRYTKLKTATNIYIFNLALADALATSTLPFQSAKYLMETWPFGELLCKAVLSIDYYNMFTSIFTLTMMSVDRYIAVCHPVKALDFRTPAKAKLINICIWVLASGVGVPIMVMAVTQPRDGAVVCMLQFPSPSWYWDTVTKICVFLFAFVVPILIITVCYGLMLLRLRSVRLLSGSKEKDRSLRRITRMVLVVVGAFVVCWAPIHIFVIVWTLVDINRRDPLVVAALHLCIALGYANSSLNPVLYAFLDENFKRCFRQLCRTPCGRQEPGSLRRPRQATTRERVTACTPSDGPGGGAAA

SMILES	Ke [1] [nM]	Ki [2] [nM]	Ke [3] [nM]	Ki [4] [nM]	Ke [5] [nM]	Ki [6] [nM]	IC50 [7] [nM]
Cc1cc(O)cc(C)c1CCC(=O)N[C@H]1CSSC[C@H](C(N)=O)NC(=O)[C@H](Cc2ccc([N+](=O)[O-])cc2)NC(=O)CNC1=O	22.6	4.79	3.68	299	63.3		
Cc1cc(O)cc(C)c1[C@H](C)CC(=O)N[C@H]1CSSC[C@H](C(N)=O)NC(=O)[C@H](Cc2ccc([N+](=O)[O-])cc2)NC(=O)CNC1=O	1630	94.4	845	6970	3280		
Cc1cc(O)cc(C)c1[C@@H](C)CC(=O)N[C@H]1CSSC[C@H](C(N)=O)NC(=O)[C@H](Cc2ccc([N+](=O)[O-])cc2)NC(=O)CNC1=O	5.81		1.4	49.5	55	2.1	
Cc1cc(O)cc(C)c1C[C@H](N)C(=O)N[C@@H]1CSSC[C@H](C(N)=O)NC(=O)[C@H](Cc2ccc([N+](=O)[O-])cc2)NC(=O)CNC1=O		0.24		3.77			0.54
